Measured values: PMC7907166, “AOA-2 Derivatives as Outer Membrane Protein A Inhibitors for Treatment of Gram-Negative Bacilli Infections” (Frontiers in Microbiology, 2021)
Positions of bridges follow the written chain, without caps; N, C: chain ends. Non-standard residues stand in square brackets, D forms with d. Residues, ends and D or L forms follow the SMILES beside them. *: point of attachment. X1 = CC[C@H](C)CCCCC(=O)*; Dab = NCC[C@H](N)C(=O)O

What was measured:
[1] = tested on: A. baumannii ATCC 17978; test: Bacterial adhesion assay to A549 cells; type: cell-based; conditions: for adherence of A. baumannii to A549 cells reduced to: bacteria pre-incubated with peptide 250 μg/mL 30 min, MOI 500, 2 h, CFU count; for adherence of ATCC 17978 to A549 cells compared with AOA-2: peptide 125, 62.5 and 31.25 μg/mL, except RW06 at 31.25 μg/mL, Figure 2B
Protocol: (§1) The human pneumocyte cell line type II A549, derived from a human lung carcinoma, obtained from the American Type Culture Collection was used and cultured in DMEM medium (Invitrogen, Spain) supplemented with 10% of heat-inactivated fetal bovine serum, 50 μg/mL vancomycin (Laboratorios Normon, Spain), 20 μg/mL gentamicin (Normon Laboratories, Spain), 0.25 μg/mL amphotericin B mL (Invitrogen, Spain) and 1% HEPES (Invitrogen, Spain) in a humidified incubator, 5% CO2 at 37°C. Routine passage of A549 cells was performed every 3–4 days. Cells were seeded 24 h in 96-well plates (Sarstedt, Germany) for the cell viability assay, and in 24-well plates (Sarstedt, Germany) for the bacterial adhesion assays.
(§2) A. baumannii ATCC 17978, P. aeruginosa PAO1 and E. coli ATCC 25922 strains were incubated with AOA-2 (31.25, 62.5, 125, and 250 μg/mL, 30 min), AOA-2 derivatives RW01, RW02, RW03, RW06, RW07, RW08, RW09, RW10, RW11, and RW13 (250 μg/mL, 30 min), or AOA-2 derivatives RW01, RW02, RW03, RW06 (31.25, 62.5, and 125 μg/mL, 30 min), and added at 10^8 CFU/mL, corresponding to a multiplicity of infection (MOI) of 500, to the A549 cells for 2 h at 5% CO2 and 37°C. Subsequently, infected A549 cells were washed five times with prewarmed PBS 1X and lysed with 0.5% Triton X-100. Serial dilutions of these lysates were made and plated on blood agar plates (Blood-Agar Columbia, Becton Dickinson Microbiology Systems, United States) and incubated at 37°C for 24 h for colony counting and then determination of CFU/mL that attached to A549 cells.

[2] = tested on: E. coli ATCC 25922; test: Bacterial adhesion assay to A549 cells; type: cell-based; conditions: for adherence of E. coli to A549 cells reduced to: bacteria pre-incubated with peptide 250 μg/mL 30 min, MOI 500, 2 h, CFU count; for adherence of ATCC 25922 to host cells compared with AOA-2: peptide 125, 62.5 and 31.25 μg/mL, Figure 2B; for adherence of ATCC 25922 strain to A549 cells (in words): peptide 250 μg/mL, 30 min, Figure 2A
Protocol: as §1, §2

[3] = tested on: P. aeruginosa PAO1; test: Bacterial adhesion assay to A549 cells; type: cell-based; conditions: for adherence of P. aeruginosa to A549 cells reduced to: bacteria pre-incubated with peptide 250 μg/mL 30 min, MOI 500, 2 h, CFU count; for adherence of PAO1 strain to A549 cells compared with AOA-2: peptide 125, 62.5 and 31.25 μg/mL, some statistical differences, Figure 2B; for adherence of PAO1 strain to A549 cells (in words): peptide 250 μg/mL, 30 min, Figure 2A
Protocol: as §1, §2

[4] = tested on: A. baumannii ATCC 17978; test: Bacterial cytotoxicity: viability of infected A549 cells (MTT); type: cell-based; conditions: for cell viability of infected A549 cells with respect to untreated strain: 24 h infection
Protocol: (§3) A549 cells were incubated with the peptide derivatives RW01, RW02, RW03, RW06, RW07, RW08, RW09, RW10, RW11, and RW13 (0, 3.5, 7, 15, 35, 62, 125, 250, and 500 μg/mL) for 24 h with 5% CO2 at 37°C. Prior the evaluation of the peptides cytotoxicity, A549 cells were washed three times with prewarmed PBS 1X. Subsequently, quantitative cytotoxicity was evaluated by measuring the mitochondrial reduction activity using the 3-(4,5-dimethylthiazol-2-yl)-2,5-diphenyltetrazolium bromide (MTT) assay as described previously ([Smani et al., 2013]). The percentage of […] was calculated from the absorbance at 570 nm as follow: [(Absorbance 570 nm of treated cells/Absorbance 570 nm mean of untreated cells) × 100].
(§4) A549 cells were infected with 10^8 CFU/mL, corresponding to a MOI of 500, of A. baumannii ATCC 17978, P. aeruginosa PAO1 and E. coli ATCC 25922 strains pretreated with AOA-2 or AOA-2 derivatives RW01, RW02, RW03, and RW06 (31.25, 62.5, and 125 μg/mL, 30 min) for 24 h with 5% CO2 at 37°C. Prior to the evaluation of bacterial cytotoxicity, viable bacteria are first removed from A549 cell culture by washing these A549 cells five times with PBS 1X. Subsequently, cell viability was evaluated as described above.

[5] = tested on: E. coli ATCC 25922; test: as above; type: cell-based; conditions: for cell viability of infected A549 cells with respect to untreated strain: ATCC 25922 pretreated with peptide 125, 62.5 and 31.25 μg/mL, 24 h infection
Protocol: as §3, §4

[6] = tested on: P. aeruginosa PAO1; test: as above; type: cell-based; conditions: 24 h infection
Protocol: as §3, §4

[7] = tested on: A. baumannii ATCC 17978; type: cell-based; conditions: microdilution, two independent experiments; for MIC of colistin in presence of peptide: peptide added at 125 μg/mL
Protocol: The minimal inhibitory concentration (MIC) of colistin in absence and presence of RW01 or RW06 at […] for A. baumannii ATCC 17978 strain was determined by microdilution assay in two independent experiments as previously reported ([Parra-Millán et al., 2018]).

[8] = tested on: OmpA-deficient mutant A. baumannii, JPAB01; type: cell-based; conditions: for MIC of colistin in presence of peptide: peptide added at 125 μg/mL, did not change the activity
[9] = tested on: A549 cells; parameters: method as in Vila-Farrés et al., 2017; conditions: cited from earlier work
[10] = tested on: A. baumannii, P. aeruginosa, and E. coli; conditions: in vivo administration, ref Vila-Farrés et al., 2017, cited from earlier work
From the text: This study focuses on the paradigm of interference in pathogenesis, that is, disarming pathogenic bacteria by neutralizing their virulence factors ([Dickey et al., 2017]).

[11] = tested on: A. baumannii; parameters: method as in Parra-Millán et al., 2018; conditions: ref Parra-Millán et al., 2018; cited from earlier work
From the text: Therefore, we thought it would be interesting to examine the capacity of RW01 and RW06 to potentiate the activity of colistin against A. baumannii ATCC 17978 strain.

[12] = tested on: colistin-resistant A. baumannii; conditions: ref Parra-Millán et al., 2018; cited from earlier work
From the text: The therapeutic efficacy of these […] should also be further evaluated in combination with antimicrobial agents used in the clinical setting.

[13] = ATCC 17978 pretreated with peptide 125 μg/mL only

With “&Trp-D-Pro-Dab-Trp-D-Pro-Dab& (head to tail) [RW06, AOA-2 derivative with arginine analog Dab]” the “adherence of A. baumannii to A549 cells reduced to” value [1] was 32.83%, the “adherence of ATCC 17978 to A549 cells compared with AOA-2” value [1] was “reduced non-statistically” and the “adherence of E. coli to A549 cells reduced to” value [2] was 44.44%. The “adherence of ATCC 25922 to host cells compared with AOA-2” value [2] was “reduced with some statistical differences”, the “adherence of P. aeruginosa to A549 cells reduced to” value [3] was 31.14% and the “adherence of PAO1 strain to A549 cells compared with AOA-2” value [3] was “reduced better”. The “cell viability of infected A549 cells with respect to untreated strain” value (shortened to “cell viability of infected A549 cells”) [4, 13] was “increased significantly”, the “protection from cell death caused by ATCC 17978 compared with AOA-2” value ([4]; peptide 62.5 μg/mL) was “protected more significantly” and the “cell viability of infected A549 cells” value [5] was “did not increase significantly”. The “cell viability of infected A549 cells” value ([6]; PAO1 pretreated with peptide 62.5 and 31.25 μg/mL (125 μg/mL excepted)) was “did not increase significantly”, the “MIC of colistin in presence of peptide” value [7] was 0.015 µg/mL and the “MIC of colistin in presence of peptide” value [8] was 0.0625 µg/mL.

With “&Tyr-D-Pro-Ala-Tyr-D-Pro-Ala& (head to tail) [RW10]” the “adherence of PAO1 strain to A549 cells (in words)” value [3] was “reduced”.

With “&Trp-D-Pro-Lys-Trp-D-Pro-Lys& (head to tail) [RW07, AOA-2 derivative with arginine analog lysine]” the “adherence of ATCC 25922 strain to A549 cells (in words)” value [2] was “reduced” and the “adherence of PAO1 strain to A549 cells (in words)” value [3] was “reduced”.

For “&Trp-D-Pro-Trp-Arg-D-Pro-Arg& (head to tail) [RW09]”, the “adherence of PAO1 strain to A549 cells (in words)” value [3] was “reduced”.

`CC[C@H](C)CCCCC(=O)N[C@@H](CCN)C(=O)N[C@H](C(=O)N[C@@H](CCN)C(=O)N[C@H]1CCNC(=O)[C@H]([C@@H](C)O)NC(=O)[C@H](CCN)NC(=O)[C@H](CCN)NC(=O)[C@H](CC(C)C)NC(=O)[C@@H](CC(C)C)NC(=O)[C@H](CCN)NC1=O)[C@@H](C)O` [colistin, reference compound] (X1-[Dab]T[Dab][Dab][Dab][dL]L[Dab][Dab]T; lactam 4-C (inferred); N-terminus assumed) gave an MIC of colistin ([7]; colistin alone) of 0.5 µg/mL and an MIC of colistin ([8]; colistin alone, microdilution) of 0.0625 µg/mL.

For “&3Pal-D-Pro-Arg-3Pal-D-Pro-Arg& (head to tail) [RW02, AOA-2 derivative with tryptophan analog 3Pal]”, the “adherence of A. baumannii to A549 cells reduced to” value [1] was 43.58%, the “adherence of E. coli to A549 cells reduced to” value [2] was 61.11% and the “adherence of P. aeruginosa to A549 cells reduced to” value [3] was 42.51%. For the same molecule, the “adherence of PAO1 strain to A549 cells compared with AOA-2” value [3] was “reduced better”.

With “&3Pal-D-Pro-Arg-Trp-D-Pro-Tyr& (head to tail) [RW13]” the “adherence of ATCC 25922 strain to A549 cells (in words)” value [2] was “reduced” and the “adherence of PAO1 strain to A549 cells (in words)” value [3] was “reduced”.

In the case of “&2Nal-D-Pro-Arg-3Pal-D-Pro-Arg& (head to tail) [RW11]”, the “adherence of PAO1 strain to A549 cells (in words)” value [3] is reported as “reduced”.

For “&2Nal-D-Pro-Arg-2Nal-D-Pro-Arg& (head to tail) [RW03, AOA-2 derivative with tryptophan analog 2Nal]”, the “adherence of A. baumannii to A549 cells reduced to” value [1] was 55.47%, the “adherence of E. coli to A549 cells reduced to” value [2] was 29.62% and the “adherence of ATCC 25922 to host cells compared with AOA-2” value [2] was “reduced with some statistical differences”. The “adherence of P. aeruginosa to A549 cells reduced to” value [3] was 20.71% and the “adherence of PAO1 strain to A549 cells compared with AOA-2” value [3] was “reduced better”.

In the case of “&Trp-(NH2) D-Pro-Arg-Trp-D-Pro-Arg& (head to tail) [RW01, AOA-2 derivative, solubility enhanced by the addition of NH2 group]”, the “adherence of A. baumannii to A549 cells reduced to” value [1] is reported as 26.18%, the “adherence of ATCC 17978 to A549 cells compared with AOA-2” value [1] is reported as “reduced non-statistically” and the “adherence of E. coli to A549 cells reduced to” value [2] is reported as 66.66%. The “adherence of ATCC 25922 to host cells compared with AOA-2” value [2] was “reduced with some statistical differences”, the “adherence of P. aeruginosa to A549 cells reduced to” value [3] was 40.08% and the “adherence of PAO1 strain to A549 cells compared with AOA-2” value [3] was “reduced better”. For the same molecule, the “cell viability of infected A549 cells” value [4, 13] was “increased significantly”, the “cell viability of infected A549 cells” value [5] was “increased significantly” and the “protection from cell death caused by ATCC 25922 compared with AOA-2” value ([5]; peptide 62.5 and 31.25 μg/mL) was “more protective”. For the same molecule, the “cell viability of infected A549 cells” value ([6]; PAO1 pretreated with peptide 125 and 62.5 μg/mL (31.25 μg/mL excepted)) was “increased significantly”, the “MIC of colistin in presence of peptide” value [7] was 0.015 µg/mL and the “MIC of colistin in presence of peptide” value [8] was 0.0625 µg/mL.

For “&Arg-D-Pro-Trp-Trp-D-Pro-Arg& (head to tail) [RW08]”, the “adherence of ATCC 17978 strain to A549 cells (in words)” value ([1]; peptide 250 μg/mL, 30 min, Figure 2A) was “reduced” and the “adherence of PAO1 strain to A549 cells (in words)” value [3] was “reduced”.

For “&Trp-D-Pro-Arg-Trp-D-Pro-Arg& (head to tail) [AOA-2]”, the “adherence of A. baumannii to A549 cells reduced to” value [1] was 36.62%, the “adherence of E. coli to A549 cells reduced to” value [2] was 65.05% and the “adherence of P. aeruginosa to A549 cells reduced to” value [3] was 84.47%. The “cell viability of infected A549 cells” value ([4]; ATCC 17978 pretreated with peptide 125, 62.5 and 31.25 μg/mL, 30 min) was “did not increase significantly”, the “cell viability of infected A549 cells” value [5] was “did not increase significantly” and the “cell viability of infected A549 cells” value ([6]; PAO1 pretreated with peptide 125, 62.5 and 31.25 μg/mL) was “did not increase significantly”. The “toxicity in human lung epithelial cells” value [9] was “did not show toxicity”, the mice mortality ([10]; especially in A. baumannii) was “significant decrease” and the “bacterial load in tissues” value [10] was “large decrease”. The synergy with colistin [11] was “synergize with colistin” and the “therapeutic efficacy when combined with colistin” value [12] was “good therapeutic efficacy”.
